Results reported in patent publication US6087371A, “Heterocyclyl-ergoline derivatives as 5-HT1A receptor ligands” (Pharmacia & Upjohn S.p.A., priority 1996, dated 2000).
Like-named read-outs stand apart in the source and are kept apart here.

Tests used:
5-HT1A receptor = target: T1, 5-HT1A receptor (Rattus norvegicus, UniProt P19327); test: Affinity for serotonin 1A (5-HT1A) receptor, 3H-8-OH-DPAT binding test
T1 construct: Freezed hippocampus dissected out from rats were homogenized; from tissue; host or cells: rat hippocampus, crude synaptosomal membranes
T1 sequence (P19327 1-422): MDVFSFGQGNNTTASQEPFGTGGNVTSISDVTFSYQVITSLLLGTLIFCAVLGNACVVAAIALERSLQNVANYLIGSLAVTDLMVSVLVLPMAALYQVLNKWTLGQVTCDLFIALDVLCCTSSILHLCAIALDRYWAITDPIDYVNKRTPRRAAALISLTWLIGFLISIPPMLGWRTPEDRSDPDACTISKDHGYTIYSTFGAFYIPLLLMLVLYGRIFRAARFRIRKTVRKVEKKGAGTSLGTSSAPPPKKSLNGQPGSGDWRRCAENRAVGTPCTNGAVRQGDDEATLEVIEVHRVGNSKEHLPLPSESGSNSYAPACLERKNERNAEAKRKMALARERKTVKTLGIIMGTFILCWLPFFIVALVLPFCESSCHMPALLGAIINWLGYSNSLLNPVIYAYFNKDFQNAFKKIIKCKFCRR
Procedure: Affinity for serotonin 1A (5-HT1A) receptor [^3 H-8-Hydroxy-2-dipropylaminotetralin (^3 H-8-OH-DPAT)binding test]
Preparation of crude synaptosome fraction and binding assay were conducted in accordance with the method reported in Journal of Neurochemistry, vol 44, page 1685, 1985 by Hall et al. Freezed hippocampus dissected out from rats were homogenized in 40 volumes of ice cold 50 mM Tris-HCl buffer (pH. 7.4) and the suspension was centrifuged at 500× g for 10 minutes at 0° C.
The supernatant was centrifuged at 40,000× g for 20 minutes at 0° C. and the resulting pellet was homogenized in 40 volumes of the above buffer and incubated at 37° C. for 10 minutes. After completion of reaction, the suspension was centrifuged at 40,000× g for 20 minutes at 0° C. The resulting pellet was washed twice by resuspension in 40 volumes of the above buffer and centrifugation, and finally suspended in 60 volumes of ice-cold 50 mM Tris-HCI buffer (pH 7.4) containing 1 mM manganese chloride for use in the next assay.
To the aliquots ([…]) of synaptosome membranes solution were added 50 ml of tritiated 8-OH-DPAT solution at the terminal concentration of 0.2 nM and 50 ml of test compound solution or 50 ml of its medium, and incubated at 37° C. for 10 minutes. Then to the mixture was added 5 ml of ice-cold 50 mM Tris-HCI buffer (pH 7.4) rapidly vacuum-filtered through Whatman^R GF/B filters and washed twice with 5 ml of the same buffer. The radioactivity of the residue remaining on the filters was measured by liquid scintillation counter. Nonspecific binding was determined under the presence of 10^-5 M serotonin (5-HT). 50% Inhibition concentration (IC50) of the test compound was graphically determined.

5-HT2 receptor = target: T2, 5-HT2 receptor (Rattus norvegicus, UniProt P14842); test: Affinity for serotonin 2 (5-HT2) receptor, 3H-Ketanserin binding test
T2 construct: Freezed cerebral cortex dissected out from rats were homogenized; from tissue; host or cells: rat cerebral cortex, crude synaptosomal membranes
Procedure: Affinity for serotonin 2(5-HT2)receptor (^3 H-Ketanserin binding test).
The supernatant was centrifuged at 40,000× g for 20 minutes at 0° C. and the resulting pellets was homogenized in 30 volumes of ice-cold 50 mM Tris-HCI buffer (pH.7.7) and incubated at 37° C. for 10 minutes. The suspension was centrifuged at 40,000× g for 20 minutes at 0° C. again. The resulting pellet was homogenized in 100 volumes of the above buffer and provided as synaptosome membranes solution for the next assay.
To the aliquots (900 m) of synaptosome membranes solution were added 50 ml solution of ^3 H-Ketanserin solution at the terminal concentration of […] and 50 ml of test compound or its medium, and incubated at 37° C. for 20 minutes. After completion of the reaction, the mixture was rapidly vacuum-filtered through Whatman^R GF/B filters. The filters were washed three times with 5 ml of the above buffer, and then the radioactivity of the residue remaining on the filters was measured by liquid scintillation counter. Non specific binding was determined under the presence of […] of mianserin.

D2 receptor = target: T3, D2 receptor (Rattus norvegicus, UniProt P61169); test: Affinity for dopamine 2 (D2) receptor, 3H-Spiperone binding test; details: rat corpus striatum, 3H-Spiperone 0.2 nM, 37° C. 20 minutes; read-out: D2 affinity expressed as IC50
T3 construct: Freezed corpus striatum dissected out from rats were homogenized; from tissue; host or cells: rat corpus striatum, crude synaptosomal membranes
Procedure: Affinity for dopamine 2 (D2)receptor (^3 H-Spiperone binding test.)
Preparation of crude synaptosome fraction and binding assays were conducted in accordance with the method reported in European Journal of Pharmacology, vol 46, page 377,1977 by I.Creese et al. Freezed corpus striatum dissected out from rats were homogenized in 100 volumes of ice cold 50 mM Tris-HCl buffer (pH.7.7) and the suspension was centrifuged at 500× g for 10 minutes at 0° C.
The supernatant was centrifuged at 50,000× g for 15 minutes at 0° C. and the resulting pellet was homogenized in 100 volumes of the above buffer and then the suspension was centrifuged at 50,000× g for 15 minutes at 0° C. again. The resulting pellet was homogenized in 150 volumes of 50 mM Tris-HCl buffer (PH 7.1) containing 120 mM potassium chloride, 2 mM calcium chloride, 1 mM magnesium chloride, 0,1 ascorbic acid and […] pargyline. The suspension was incubated at 37° C. for 10 minutes and then provided as synaptosome membranes solution for the next assays. To the aliquots (900 m) of synaptosome membranes solution were added 50 ml of H-Spiperone solution at the terminal concentration of 0.2 nM and 50 ml of test compound solution or 50 ml of its medium, and incubated at 37° C. for 20 minutes. After completion of the reaction, the mixture was rapidly vacuum-filtered through Whatman^R GF/B filters. The filters were washed three times with 5 ml of the above buffer, and then the radioactivity of the residue remaining on the filters was measured by liquid scintillation counter. Nonspecific binding was determined under presence of […] of L)-Sulpiride 50% Inhibition concentration (IC50) of the test compound was graphically determined.

PKC = PKC translocation in hippocampal synaptosomes (Western blot); type: cell-based; details: 15 min at 30° C., control = 100, dose not given
Procedure: PKC translocation in different brain's area
Purified synaptosomes have been obtained following the procedure described by Dunkley (Dunkley P. R., Health J. W:, Harrison S. M., Jarvie P. E., Glenfield P. J. and Rostas J. A. P.
A rapid percolation gradient procedure for isolation of synaptosomes directly from Si fraction: homogeneity and morphology of subcellular fractions. Brain res 441:59-71, 1988).
Synaptosomes purified from cortex, hippocampus were incubated (10 mg/ml) for 15 min at 30° C. in presence of increasing doses of the compounds of the present invention dissolved in tartaric acid (pH 7.0) or of the vehicle alone.
After incubation, purified synaptosomes were collected in cold Krebs buffer containing 10 mM EGTA and then processed according to Shearmann et al (Shearman M. S., Shinomura T., Oda T. and Nishizuka Y. Protein kinase C subspecies in adult rat hippocampal synaptosomes. Activation by diacylglycerol and arachidonic acid. FEBS Lett 279:261-264, 1991).
Synaptosomes have been lysed in this solution for 30 min at 4° C. with stirring. […]
PKC on Western blots was detected with a polyclonal total PKC antibody (Upstate Biotechnology). […] Antigen antibody complexes were detected by enhanced chemiluminescence. Results have been analysed by computer assisted Image analysis and expressed as per cent of PKC translocation in control conditions.

D1 receptor = test: Affinity for D1 receptor (method not described); type: binding; details: read-out: D1 affinity expressed as IC50
[1] = rat hippocampus, 3H-8-OH-DPAT 0.2 nM, 37° C. 10 minutes, read-out: 5-HT1A affinity expressed as IC50

T3 sequence (P61169 whole entry): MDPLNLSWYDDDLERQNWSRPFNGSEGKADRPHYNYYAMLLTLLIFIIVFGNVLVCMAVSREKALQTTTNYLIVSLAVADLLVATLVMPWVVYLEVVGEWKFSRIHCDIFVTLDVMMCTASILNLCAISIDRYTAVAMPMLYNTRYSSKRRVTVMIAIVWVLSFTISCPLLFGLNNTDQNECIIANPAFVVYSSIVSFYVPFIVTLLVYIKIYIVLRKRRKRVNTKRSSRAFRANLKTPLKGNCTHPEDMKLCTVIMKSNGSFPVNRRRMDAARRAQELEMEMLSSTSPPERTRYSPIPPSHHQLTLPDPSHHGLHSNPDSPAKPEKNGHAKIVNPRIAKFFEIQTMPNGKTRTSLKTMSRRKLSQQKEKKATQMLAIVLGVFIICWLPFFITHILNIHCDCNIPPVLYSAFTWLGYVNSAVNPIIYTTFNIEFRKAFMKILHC
T2 sequence (P14842 whole entry): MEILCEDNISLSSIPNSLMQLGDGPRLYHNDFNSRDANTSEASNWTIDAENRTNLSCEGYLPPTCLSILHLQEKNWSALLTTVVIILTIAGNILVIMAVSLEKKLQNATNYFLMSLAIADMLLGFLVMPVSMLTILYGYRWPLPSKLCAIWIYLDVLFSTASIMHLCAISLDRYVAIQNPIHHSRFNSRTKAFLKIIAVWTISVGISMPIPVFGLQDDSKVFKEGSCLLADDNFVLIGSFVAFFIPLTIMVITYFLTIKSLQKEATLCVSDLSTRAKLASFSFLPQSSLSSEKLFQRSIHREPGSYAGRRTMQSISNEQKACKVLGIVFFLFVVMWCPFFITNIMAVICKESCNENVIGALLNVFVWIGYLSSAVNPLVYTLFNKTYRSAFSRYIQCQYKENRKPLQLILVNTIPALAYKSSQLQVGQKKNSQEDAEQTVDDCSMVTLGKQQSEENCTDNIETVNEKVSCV

Row | Compound | IC50 (5-HT1A receptor; [1]) [nM] | IC50 (5-HT2 receptor) [nM] | IC50 (D2 receptor) [nM] | PKC translocation in hippocampal synaptosomes, expressed as per cent of PKC translocation in control conditions (PKC) [per cent] | IC50 (5-HT1A receptor) [nM] | IC50 (D1 receptor) [nM]
1 | CO[C@]12C[C@@H](Cc3noc(-c4cncc(Br)c4)n3)CN(C)[C@@H]1Cc1cn(C)c3cccc2c13 [Example 2, 1,6-Dimethyl-8β-methyl-[5-(5-bromo-pyridin-3-yl)-1,2,4-oxadiazol-3-yl]-10α-methoxy-ergoline] | 200 | 2400 | 3640 |  |  | 
2 | CO[C@]12C[C@@H](Cc3nc(-c4cncc(Br)c4)no3)CN(C)[C@@H]1Cc1cn(C)c3cccc2c13 [Example 4, 1,6-Dimethyl-8β-methyl-[3-(5-bromo-pyridin-3-yl)-1,2,4-oxadiazol-5-yl]-10α-methoxy-ergoline] | 300 | 3400 | 2930 | 126 |  | 
3 | CO[C@]12C[C@@H](c3nnc(-c4cncc(Br)c4)o3)CN(C)[C@@H]1Cc1cn(C)c3cccc2c13 [Example 8, 1,6-Dimethyl-8β-[2-(5-bromo-pyridin-3-yl)-1,3,4-oxadiazol-5-yl]-10α-methoxy-ergoline] |  | 27 | 1950 |  | 9 | 2040
4 | CO[C@]12C[C@@H](Cc3nnc(-c4cncc(Br)c4)o3)CN(C)[C@@H]1Cc1cn(C)c3cccc2c13 [Example 10, 1,6-Dimethyl-8β-methyl-[2-(5-bromo-pyridin-3-yl)-1,3,4-oxadiazol-5-yl]-10α-methoxy-ergoline] |  | 890 | 2510 |  | 11 | 
